Test [1] has as its target recombinant H1N1 neuraminidase (Influenza A virus (strain A/Puerto Rico/8/1934 H1N1), UniProt P03468). Description: biochemical. Format: biochemical.
For test [2], the target named is neuraminidase of NP40-inactivated influenza A/Brisbane/59/2007(H1N1) (Influenza A virus, UniProt D5F1R0). Nature of the test: In vitro neuraminidase assay vs. NP40-inactivated influenza virus. Format: biochemical.
Another test deals with neuraminidase. The note with it: background statement; cited from earlier work.
[3] abbreviates: NP40-inactivated influenza A/Brisbane/59/2007(H1N1), read-out: IC50.
Setting [4] is: NP40-inactivated virus, Lineweaver-Burk analysis.

This is an account of results in patent publication US8883846B2, “Synthesis of bicyclic compounds and method for their use as therapeutic agents” (priority 2010, dated 2014).

Several values for one entry are separate records, joined by “and”; a condition that tells them apart may be missing. Equal entries are not always repeated. Where two headings read alike, the source gives them in different places. Some results are limits rather than exact numbers.

recombinant H1N1 neuraminidase, sequence (P03468 36-454 limits assumed): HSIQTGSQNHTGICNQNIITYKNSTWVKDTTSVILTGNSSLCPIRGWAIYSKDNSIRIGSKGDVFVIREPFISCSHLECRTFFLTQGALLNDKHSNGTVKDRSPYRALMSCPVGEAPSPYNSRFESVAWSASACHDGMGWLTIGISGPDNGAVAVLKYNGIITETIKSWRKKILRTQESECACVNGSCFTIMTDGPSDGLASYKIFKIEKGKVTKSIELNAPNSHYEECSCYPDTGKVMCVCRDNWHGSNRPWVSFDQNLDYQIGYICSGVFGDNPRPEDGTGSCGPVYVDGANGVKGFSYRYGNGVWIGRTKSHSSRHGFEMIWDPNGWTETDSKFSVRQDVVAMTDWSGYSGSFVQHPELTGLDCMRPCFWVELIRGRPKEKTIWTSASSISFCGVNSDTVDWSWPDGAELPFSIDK
neuraminidase of NP40-inactivated influenza A/Brisbane/59/2007(H1N1), sequence (D5F1R0 1-470): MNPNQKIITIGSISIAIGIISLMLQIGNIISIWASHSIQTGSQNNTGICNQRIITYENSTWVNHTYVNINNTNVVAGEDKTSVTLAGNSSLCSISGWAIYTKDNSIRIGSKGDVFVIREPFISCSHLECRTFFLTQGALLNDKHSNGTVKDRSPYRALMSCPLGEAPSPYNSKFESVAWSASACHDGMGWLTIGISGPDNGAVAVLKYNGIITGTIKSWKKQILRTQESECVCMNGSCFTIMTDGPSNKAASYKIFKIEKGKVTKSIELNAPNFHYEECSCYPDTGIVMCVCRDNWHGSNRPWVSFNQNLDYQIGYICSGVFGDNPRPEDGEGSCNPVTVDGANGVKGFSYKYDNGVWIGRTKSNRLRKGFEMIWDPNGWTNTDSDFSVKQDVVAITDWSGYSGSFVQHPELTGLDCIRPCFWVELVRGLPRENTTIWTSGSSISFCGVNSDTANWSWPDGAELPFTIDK

On to `C[C@@H]1C[C@](O)(C(=O)O)[C@H]2CCS(=O)(=O)[C@@H]12` [Compound 20], for which, in test [1], the IC50 was found to be 4000 µM, the “Inhibition Mode” value is recorded as “mixed” and the “inhibition of commercially available recombinant H1N1 neuraminidase” value is given as “dose-dependent inhibition”.

`C[C@@H]1C[C@](O)(C(=O)O)[C@H]2C[C@H](Cc3ccccc3)S(=O)(=O)[C@@H]12` [Compound 21]: the IC50 in test [1] was more than 10000 µM.

For the molecule `N=C(N)N[C@@H]1C[C@](O)(C(=O)O)[C@H]2CCS(=O)(=O)[C@@H]12` [Compound 27], the IC50 in test [2] (setting [3]) is 3700 µM and 3800 µM. Further, in test [2] (setting [4]), the “Inhibition Mode” value is recorded as “competitive”. For the same molecule, the Ki in test [2] (NP40-inactivated virus, estimated from Km versus inhibitor concentration, read-out: Ki) was 1000 µM.

For `CC(=O)N[C@H]1CS(=O)(=O)[C@H]2[C@@H]1[C@H](N)C[C@@H]2C(=O)O` [Compound 31], the IC50 in test [2] (setting [3]) was determined as 92 µM. In addition, the “Inhibition Mode” value in test [2] (setting [4]) is listed as “competitive”.

On to `CC(=O)N[C@H]1CS(=O)(=O)[C@H]2[C@@H]1[C@H](NC(=N)N)C[C@@H]2C(=O)O` [Compound 32], for which, in test [2], the “Inhibition Mode” value is on record as “competitive” and the Ki turned out to be 5 µM. Besides, the IC50 in test [2] (IC50) came out at 30 µM.

With `CCOC(=O)C1=C[C@@H](OC(CC)CC)[C@H](NC(C)=O)[C@@H](N)C1` [oseltamivir], the “effective concentration as neuraminidase inhibitor” value with neuraminidase is given as “around 1 nM”.

With `CCC(CC)[C@H](NC(C)=O)[C@@H]1[C@H](O)[C@@H](C(=O)O)C[C@H]1N=C(N)N` [peramivir], the “potency relative to oseltamivir” value in the test on neuraminidase is given as “roughly ten-fold”.

As a reminder, the IC50 is the concentration that inhibits the measured activity by half.
